Among the data in ChEMBL document CHEMBL4390711, “New phenylpropanoid allopyranosides from the rhizomes of Cimicifuga dahurica” (Bioorg Med Chem Lett, 2019) are IC50 values, retold here.

This assay relates to RAW264.7. Nature of the assay: Antiinflammatory activity against mouse RAW264.7 cells assessed as inhibition of LPS-induced PGE2 production preincubated for 1 hr followed by LPS-stimulation and measured after 18 hrs. The format is functional, cell-based.
In the case of `COc1cc(/C=C/C(=O)O[C@H](C(=O)O)[C@](O)(Cc2ccc(O)cc2)C(=O)O)ccc1O` [CIMICIFUGIC ACID E], the IC50 amounted to 19.7 µM.
As to `C[C@]12CCC(=O)C=C1CC[C@@H]1[C@@H]2[C@@H](O)C[C@@]2(C)[C@H]1CC[C@]2(O)C(=O)CO` [HYDROCORTISONE], the IC50 amounted to 5.5 µM.
In the case of `COc1cc(/C=C/C(=O)NCCc2ccc(O)cc2)ccc1O` [N-TRANS-FERULOYL TYRAMINE], the IC50 is 6.33 µM.
On to `COc1cc(/C=C/C(=O)NCCc2ccc(O)c(O)c2)ccc1O` [N-TRANS-FERULOYLDOPAMINE], for which the IC50 stood at 39.9 µM.

A word on the IC50: it is the point on the concentration scale where inhibition reaches its midpoint.
